Reference: paper PMC3133487 (Journal of Antimicrobial Chemotherapy, 2011)
≈ marks a conversion by molar mass, not a printed value. Where “and” joins values, the source holds several entries; their conditions need not be identical. Equal values may be shown once.

Assays:
EMRSA-15 = experiment: Microdilution MIC assay in Mueller–Hinton broth; assay type: cell-based; conditions: Staphylococcus aureus, read-out: MIC S. aureus EMRSA-15
EMRSA-16 = experiment: Microdilution MIC assay in Mueller–Hinton broth; assay type: cell-based; conditions: Staphylococcus aureus, read-out: MIC S. aureus EMRSA-16
M. smegmatis mc^2155 = experiment: microbe, parasite or virus in culture; assay type: cell-based, Mycobacterium smegmatis; conditions: Mycolicibacterium smegmatis, MC^2155, 72 h, read-out: MIC M. smegmatis mc^2155
M. fortuitum = experiment: Microdilution MIC assay in cation-adjusted Mueller–Hinton broth; assay type: cell-based, Mycobacterium fortuitum; conditions: Mycolicibacterium fortuitum, read-out: MIC M. fortuitum
M. phlei = experiment: as above; assay type: cell-based, Mycobacterium phlei; conditions: Mycolicibacterium phlei, read-out: MIC M. phlei
M. tuberculosis MurE [1] = molecular target: T1, M. tuberculosis MurE (Mycobacterium tuberculosis, UniProt P9WJL3); experiment: MurE ligase inhibition, phosphate colorimetric detection method; assay type: biochemical
T1 sequence (P9WJL3 1-535): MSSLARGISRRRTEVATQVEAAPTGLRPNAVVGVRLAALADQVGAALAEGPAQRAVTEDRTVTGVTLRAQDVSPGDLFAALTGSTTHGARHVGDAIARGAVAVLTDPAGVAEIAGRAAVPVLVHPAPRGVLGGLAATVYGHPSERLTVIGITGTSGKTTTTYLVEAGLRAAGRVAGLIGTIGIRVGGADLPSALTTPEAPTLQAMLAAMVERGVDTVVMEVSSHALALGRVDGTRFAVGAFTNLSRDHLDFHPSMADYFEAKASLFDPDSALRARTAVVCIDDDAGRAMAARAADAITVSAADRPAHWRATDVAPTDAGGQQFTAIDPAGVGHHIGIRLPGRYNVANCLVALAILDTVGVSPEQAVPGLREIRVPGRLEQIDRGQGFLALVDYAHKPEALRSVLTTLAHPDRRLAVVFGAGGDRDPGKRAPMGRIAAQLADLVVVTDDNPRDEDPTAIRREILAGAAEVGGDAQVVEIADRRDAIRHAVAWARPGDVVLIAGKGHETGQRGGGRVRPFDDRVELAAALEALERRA

M. tuberculosis MurE [2] = molecular target: T1, M. tuberculosis MurE; experiment: MurE ligase inhibition, HPLC quantification of UDP-MurNAc-tripeptide; assay type: biochemical
RAW264.7 macrophages = conditions: RAW264.7, 48 h, ±SD

With `CCn1cc(C(=O)O)c(=O)c2cc(F)c(N3CCNCC3)cc21` [norfloxacin] as the molecule, how does the MIC (EMRSA-15) read?
The MIC was 0.5 µg/mL (≈ 1.57 µM).

And the MIC (EMRSA-16)?
Its MIC is 256 µg/mL (≈ 802 µM).

How did the MIC (M. smegmatis mc^2155) turn out when `NNC(=O)c1ccncc1` [Isoniazid] was run?
Its MIC is 5 µg/mL and 18.5 µM.

And the MIC (M. fortuitum)?
Its MIC is 1 µg/mL and 3.65 µM.

And the MIC (M. phlei)?
The MIC was 4 µg/mL and 15 µM.

And the IC50 (M. tuberculosis MurE [1])?
Its IC50 is over 1000 µM.

And the IC50 (M. tuberculosis MurE [2])?
Its IC50 is over 1000 µM.

And the “Murine macrophages GIC50 (50% growth inhibition concentration)” value (RAW264.7 macrophages)?
Its value is over 500 mg/L.
